Target: T1, Trypanothione reductase (TR) (Leishmania donovani, UniProt P39050)
T1 construct: gene TPR; native enzyme in cell extracts of L. donovani axenic amastigotes
Assay: DTNB-coupled colorimetric TR activity assay ([…] nm) in L. donovani cell extract; Lineweaver-Burk analysis
Format: biochemical

T1 sequence (P39050 whole entry): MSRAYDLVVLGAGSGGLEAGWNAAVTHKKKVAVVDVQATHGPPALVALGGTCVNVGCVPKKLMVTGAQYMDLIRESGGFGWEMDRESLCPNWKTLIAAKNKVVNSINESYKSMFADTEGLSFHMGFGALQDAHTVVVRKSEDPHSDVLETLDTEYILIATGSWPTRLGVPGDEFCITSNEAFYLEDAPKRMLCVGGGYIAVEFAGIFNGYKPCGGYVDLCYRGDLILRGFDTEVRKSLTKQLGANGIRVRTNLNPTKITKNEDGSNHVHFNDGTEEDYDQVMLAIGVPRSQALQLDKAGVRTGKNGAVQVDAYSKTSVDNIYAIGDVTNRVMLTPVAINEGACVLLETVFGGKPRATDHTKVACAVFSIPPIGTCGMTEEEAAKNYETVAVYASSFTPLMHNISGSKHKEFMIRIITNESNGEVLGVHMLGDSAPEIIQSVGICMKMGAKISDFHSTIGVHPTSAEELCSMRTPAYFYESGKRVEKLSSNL

CSCC1CN(/N=C/c2ccc([N+](=O)[O-])o2)C(=O)O1 (stereo not shown) [NFT, nifuratel]
Ki: 3.15 ± 0.5 µM
